The target in experiment [1] is T1, human RORγt (Ligand Binding Domain) (Homo sapiens, UniProt P51449).
T1 construct: purchased Crelux (Planegg, Germany) batch no PC5032-1
T1 sequence (P51449 269-508 limits assumed): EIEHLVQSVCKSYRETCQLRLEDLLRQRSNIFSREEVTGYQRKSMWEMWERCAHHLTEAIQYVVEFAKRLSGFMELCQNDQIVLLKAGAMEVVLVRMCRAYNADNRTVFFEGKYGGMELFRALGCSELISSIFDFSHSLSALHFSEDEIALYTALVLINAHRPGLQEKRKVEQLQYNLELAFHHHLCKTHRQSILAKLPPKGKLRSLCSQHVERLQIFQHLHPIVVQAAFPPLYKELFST
The experiment is described as follows: Fluorescence Polarization (FP) Assay. The conditions noted are these: Fluorescence Polarization (FP) Assay; values given as upper bounds of activity ranges; read-out: FP activity range. Put shortly:
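Binding to the ligand pocket followed by fluorescence polarization with a TAMRA-tagged RORγt ligand probe of 910 g/mole. Negative control wells received DMSO only.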

In experiment [2] the target is T2, yeast Gal4-DNA binding domain fused to the ligand binding domain of human RORγ (Homo sapiens, UniProt P51449).
T2 construct: host or cells: HEK293t
T2 sequence (P51449 269-508 limits assumed): T1 sequence (P51449 269-508 limits assumed)
The experiment is described as follows: RORγ Reporter Assay (Gal4). The class given is cell-based. Particulars: values given as lower bounds of ranges; for Gal4 activity range @ 0.1 μM (% inhibition): RORγ Reporter Assay (Gal4) at 0.1 μM; for Gal4 activity range @ 1 μM (% inhibition): RORγ Reporter Assay (Gal4) at 1 μM. Put shortly:
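Compound at final 1,000 or 100 nM (0.1% DMSO, triplicate) was added to the transfected HEK293t cells carrying a Gal4-UAS luciferase reporter for 24 h at 37 °C, 10% charcoal-stripped FBS. Activity reduction expressed as percent of vehicle-only luciferase signal.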
(Reporter assays use an easily measured gene product as a stand-in for the process of interest.)

SMILES strings stand for the structures.

Take `CC(=O)N1CCC(F)(CNc2ncnc(N3CCOC[C@@H]3c3ccc(C(F)(F)F)cc3)c2F)CC1` [Example 262, 1-[4-fluoro-4-[[[5-fluoro-6-[(3S)-3-[4-(trifluoromethyl)phenyl]morpholin-4-yl]pyrimidin-4-yl]amino]methyl]-1-piperidyl]ethanone]: in experiment [1], the IC50 is less than 1000 nM. In experiment [2], the “Gal4 activity range @ 0.1 μM (% inhibition)” value is given as more than 20 % inhibition and the “Gal4 activity range @ 1 μM (% inhibition)” value is listed as more than 50 % inhibition.
With `O=S(=O)(N1CCC(CNc2ncnc(N3CCOC[C@@H]3c3ccc(C(F)(F)F)cc3)c2F)CC1)C(F)(F)F` [Example 263, 5-fluoro-6-[(3S)-3-[4-(trifluoromethyl)phenyl]morpholin-4-yl]-N-[[1-(trifluoromethylsulfonyl)-4-piperidyl]methyl]pyrimidin-4-amine], the IC50 in experiment [1] is less than 500 nM. Moreover, in experiment [2], the “Gal4 activity range @ 0.1 μM (% inhibition)” value is more than 50 % inhibition and the “Gal4 activity range @ 1 μM (% inhibition)” value is on record as more than 80 % inhibition.
Regarding `Fc1c(NCC2(F)CCOCC2)ncnc1N1CCOC[C@@H]1c1ccc(C(F)(F)F)cc1` [Example 264, 5-fluoro-N-[(4-fluorotetrahydropyran-4-yl)methyl]-6-[(3S)-3-[4-(trifluoromethyl)phenyl]morpholin-4-yl]pyrimidin-4-amine], the IC50 in experiment [1] was less than 500 nM. In addition, in experiment [2], the “Gal4 activity range @ 0.1 μM (% inhibition)” value is more than 20 % inhibition and the “Gal4 activity range @ 1 μM (% inhibition)” value is on record as more than 80 % inhibition.
Take `NC(=O)Cc1ccc(CN2CCc3c2ncnc3N2CCC[C@@H]2c2ccc(C(F)(F)F)cc2)cc1` [Example 265, 2-[4-[[4-[(2R)-2-[4-(trifluoromethyl)phenyl]pyrrolidin-1-yl]-5,6-dihydropyrrolo[2,3-d]pyrimidin-7-yl]methyl]phenyl]acetamide]: in experiment [1], the IC50 is less than 500 nM. For the same molecule, in experiment [2], the “Gal4 activity range @ 0.1 μM (% inhibition)” value was more than 80 % inhibition and the “Gal4 activity range @ 1 μM (% inhibition)” value is more than 80 % inhibition.
On to `CS(=O)(=O)N1CCC(F)(CNc2ncnc(N3CCOC[C@@H]3c3ccc(C(F)(F)F)cc3)c2F)CC1` [Example 266, 5-fluoro-N-[(4-fluoro-1-methylsulfonyl-4-piperidyl)methyl]-6-[(3S)-3-[4-(trifluoromethyl)phenyl]morpholin-4-yl]pyrimidin-4-amine], for which, in experiment [1], the IC50 is less than 500 nM. Besides, in experiment [2], the “Gal4 activity range @ 0.1 μM (% inhibition)” value was more than 80 % inhibition and the “Gal4 activity range @ 1 μM (% inhibition)” value is given as more than 80 % inhibition.
In the case of `CS(=O)(=O)N[C@H]1CC[C@H](CNc2ncnc(N3CCOC[C@@H]3c3ccc(OC(F)(F)F)cc3)c2F)CC1` [Example 267, N-[4-[[[5-fluoro-6-[(3S)-3-[4-(trifluoromethoxy)phenyl]morpholin-4-yl]pyrimidin-4-yl]amino]methyl]cyclohexyl] methanesulfonamide], the IC50 in experiment [1] is less than 500 nM. For the same molecule, in experiment [2], the “Gal4 activity range @ 0.1 μM (% inhibition)” value is on record as more than 80 % inhibition and the “Gal4 activity range @ 1 μM (% inhibition)” value is listed as more than 80 % inhibition.
In the case of `O=S(=O)(NC1CC1)c1ccc(CNc2ncnc(N3CCOCC3c3ccccc3)c2F)cc1` (stereo not drawn) [Example 273, N-cyclopropyl-4-[[[5-fluoro-6-(3-phenylmorpholin-4-yl)pyrimidin-4-yl]amino]methyl] benzenesulfonamide], in experiment [1], the IC50 is less than 500 nM. Moreover, in experiment [2], the “Gal4 activity range @ 0.1 μM (% inhibition)” value was more than 20 % inhibition and the “Gal4 activity range @ 1 μM (% inhibition)” value is given as more than 80 % inhibition.
Regarding `CS(=O)(=O)N1CCC(CNc2ncnc(N3CCOCC3c3ccccc3)c2F)CC1` (stereo not drawn) [Example 274, 5-fluoro-N-[(1-methylsulfonyl-4-piperidyl)methyl]-6-(3-phenylmorpholin-4-yl)pyrimidin-4-amine], in experiment [1], the IC50 is less than 2000 nM. In experiment [2], the “Gal4 activity range @ 0.1 μM (% inhibition)” value is more than 20 % inhibition and the “Gal4 activity range @ 1 μM (% inhibition)” value is recorded as more than 50 % inhibition.
`O=C(O)Cc1ccc(CNc2ncnc(N3CCOCC3c3ccccc3)c2F)cc1` (stereo not drawn) [Example 276, 2-[4-[[[5-fluoro-6-(3-phenylmorpholin-4-yl)pyrimidin-4-yl]amino]methyl]phenyl]acetic acid]: in experiment [1], the IC50 is less than 2000 nM. Also, in experiment [2], the “Gal4 activity range @ 0.1 μM (% inhibition)” value is more than 0 % inhibition and the “Gal4 activity range @ 1 μM (% inhibition)” value is more than 20 % inhibition.
In the same order, the values of `NC(=O)Cc1ccc(CNc2ncnc(N3CC(=O)CC3c3ccc(C(F)(F)F)cc3)c2F)cc1` (stereo not drawn) [Example 280, 2-[4-[[[5-fluoro-6-[4-oxo-2-[4-(trifluoromethyl)phenyl]pyrrolidin-1-yl]pyrimidin-4-yl]amino]methyl]phenyl]acetamide] are less than 500 nM, more than 0 % inhibition and more than 20 % inhibition.
The like results for `O=C(O)Cc1ccc(CNc2ncnc(N3CCOCC3c3ccccc3)c2F)s1` (stereo not drawn) [Example 282, 2-[5-[[[5-fluoro-6-(3-phenylmorpholin-4-yl)pyrimidin-4-yl]amino]methyl]-2-thienyl]acetic acid] were, in that order, less than 10000 nM, more than 0 % inhibition and more than 0 % inhibition.
As to `NC(=O)Cc1ccc(CNc2ncnc(N3CCOCC3c3ccccc3)c2F)s1` (stereo not drawn) [Example 283, 2-[5-[[[5-fluoro-6-(3-phenylmorpholin-4-yl)pyrimidin-4-yl]amino]methyl]-2-thienyl]acetamide], in experiment [1], the IC50 is less than 1000 nM. Further, in experiment [2], the “Gal4 activity range @ 0.1 μM (% inhibition)” value is listed as more than 0 % inhibition and the “Gal4 activity range @ 1 μM (% inhibition)” value is on record as more than 20 % inhibition.
Take `NC(=O)Cc1ccc(Cn2ccc3c(N4CCOCC4c4ccccc4)ncnc32)cc1` (stereo not drawn) [Example 284, 2-[4-[[4-(3-phenylmorpholin-4-yl)pyrrolo[2,3-d]pyrimidin-7-yl]methyl]phenyl]acetamide]: the IC50 in experiment [1] was less than 500 nM. In experiment [2], the “Gal4 activity range @ 0.1 μM (% inhibition)” value is recorded as more than 20 % inhibition and the “Gal4 activity range @ 1 μM (% inhibition)” value is more than 50 % inhibition.
`O=S(=O)(CC(F)(F)F)N[C@H]1CC[C@H](CNc2ncnc(N3CCOC[C@@H]3c3ccc(OC(F)(F)F)cc3)c2F)CC1` [Example 285, 2,2,2-trifluoro-N-[4-[[[5-fluoro-6-[(3S)-3-[4-(trifluoromethoxy)phenyl]morpholin-4-yl]pyrimidin-4-yl]amino]methyl]cyclohexyl]ethane sulfonamide]: in experiment [1], the IC50 is less than 500 nM. Besides, in experiment [2], the “Gal4 activity range @ 0.1 μM (% inhibition)” value is given as more than 0 % inhibition and the “Gal4 activity range @ 1 μM (% inhibition)” value is on record as more than 20 % inhibition.
The like results for `CNC(=O)C1(CNc2ncnc(N3CCOC[C@@H]3c3ccc(C(F)(F)F)cc3)c2F)CCOCC1` [Example 286, 4-[[[5-fluoro-6-[(3S)-3-[4-(trifluoromethyl)phenyl]morpholin-4-yl]pyrimidin-4-yl]amino]methyl]-N-methyl-tetrahydropyran-4-carboxamide] were, in that order, less than 2000 nM, more than 20 % inhibition and more than 20 % inhibition.
As for `N#CC[C@H]1CC[C@H](CNc2ncnc(N3CCOC[C@@H]3c3ccc(C(F)(F)F)cc3)c2F)CC1` [Example 287, 2-[4-[[[5-fluoro-6-[(3S)-3-[4-(trifluoromethyl)phenyl]morpholin-4-yl]pyrimidin-4-yl]amino]methyl]cyclohexyl] acetonitrile], the IC50 in experiment [1] is less than 500 nM. In addition, in experiment [2], the “Gal4 activity range @ 0.1 μM (% inhibition)” value was more than 50 % inhibition and the “Gal4 activity range @ 1 μM (% inhibition)” value is recorded as more than 80 % inhibition.
In the same order, the values of `Fc1c(NC[C@H]2CC[C@H](Cc3nnn[nH]3)CC2)ncnc1N1CCOC[C@@H]1c1ccc(C(F)(F)F)cc1` [Example 288, 5-fluoro-N-[[4-(1H-tetrazol-5-ylmethyl)cyclohexyl]methyl]-6-[(3S)-3-[4-(trifluoromethyl)phenyl]morpholin-4-yl]pyrimidin-4-amine] are less than 500 nM, more than 80 % inhibition and more than 80 % inhibition.
As for `CS(=O)(=O)N1CCC(Cn2ccc3c(N4CCOC[C@@H]4c4ccc(OC(F)(F)F)cc4)ncnc32)CC1` [Example 290, (3S)-4-[7-[(1-methylsulfonyl-4-piperidyl)methyl]pyrrolo[2,3-d]pyrimidin-4-yl]-3-[4-(trifluoromethoxy)phenyl] morpholine], the IC50 in experiment [1] is less than 500 nM. Further, in experiment [2], the “Gal4 activity range @ 0.1 μM (% inhibition)” value is reported as more than 50 % inhibition and the “Gal4 activity range @ 1 μM (% inhibition)” value is given as more than 80 % inhibition.
For the molecule `O=S(=O)(Nc1ccc(CNc2ncnc(N3CCOC[C@@H]3c3ccc(C(F)(F)F)cc3)c2F)cc1)C(F)(F)F` [Example 291, 1,1,1-trifluoro-N-[4-[[[5-fluoro-6-[(3S)-3-[4-(trifluoromethyl)phenyl]morpholin-4-yl]pyrimidin-4-yl]amino]methyl]phenyl] methanesulfonamide], the IC50 in experiment [1] is less than 1000 nM. Also, in experiment [2], the “Gal4 activity range @ 0.1 μM (% inhibition)” value is more than 0 % inhibition and the “Gal4 activity range @ 1 μM (% inhibition)” value is more than 50 % inhibition.
In the same order, the values of `N#CNC(=O)Cc1ccc(CNc2ncnc(N3CCOCC3c3ccc(C(F)(F)F)cc3)c2F)cc1` (stereo not drawn) [Example 292, N-cyano-2-[4-[[[5-fluoro-6-[3-[4-(trifluoromethyl)phenyl]morpholin-4-yl]pyrimidin-4-yl]amino]methyl]phenyl]acetamide] are less than 500 nM, more than 0 % inhibition and more than 20 % inhibition.
